“Also recorded” adds a separate entry of the source. Where two headings read alike, the source gives them in different places.

For test [1], the target named is T1, AChE (Homo sapiens, UniProt P22303). The conditions noted are these: cited from earlier work.
The next test has as its system BuChE. As to conditions: read-out: IC50 against BuChE, cited from earlier work.
The target in the next test is BChE (Homo sapiens, UniProt P06276). Put plainly: BChE inhibition, modified Ellman's spectrophotometric assay. Type of test: biochemical. As to the method: (§1) A previously described modified protocol of Ellman's spectrophotometric assay in clear flat-bottomed, 96-well plates, was used. […] The absorbance of each well was measured at 415 nm using a microplate reader. […]
In general terms: Ellman's reagent forms a yellow product with free thiols.

Test [2] has as its target T1, AChE. Nature of the test: Kinetic study of AChE inhibition (Lineweaver-Burk plots, Ellman's method). Type of test: biochemical. The protocol:
The kinetic study of AChE was carried out at five different concentrations (0–8 µM) of compound 4ad by Ellman's method. […]. The inhibition constant Ki was calculated by the plot of slopes versus the corresponding concentrations of the 4ad.

Test [3] concerns the target T1, AChE. Nature of the test: biochemical. As to conditions: mean ± SD. The protocol: as §1
[4] abbreviates: Fig. 2 traditional AChE inhibitors, read-out: IC50 against AChE.
The mark [5] stands for this setting: Fig. 2 traditional AChE inhibitors.
The mark [6] stands for this setting: 50 µM compound, mean ± SD, NA = not active.
Where [7] appears, read: 50 µM compound, NA = not active.
[8] abbreviates: Fig. 3, read-out: IC50 against AChE.

BChE, sequence (P06276 29-602): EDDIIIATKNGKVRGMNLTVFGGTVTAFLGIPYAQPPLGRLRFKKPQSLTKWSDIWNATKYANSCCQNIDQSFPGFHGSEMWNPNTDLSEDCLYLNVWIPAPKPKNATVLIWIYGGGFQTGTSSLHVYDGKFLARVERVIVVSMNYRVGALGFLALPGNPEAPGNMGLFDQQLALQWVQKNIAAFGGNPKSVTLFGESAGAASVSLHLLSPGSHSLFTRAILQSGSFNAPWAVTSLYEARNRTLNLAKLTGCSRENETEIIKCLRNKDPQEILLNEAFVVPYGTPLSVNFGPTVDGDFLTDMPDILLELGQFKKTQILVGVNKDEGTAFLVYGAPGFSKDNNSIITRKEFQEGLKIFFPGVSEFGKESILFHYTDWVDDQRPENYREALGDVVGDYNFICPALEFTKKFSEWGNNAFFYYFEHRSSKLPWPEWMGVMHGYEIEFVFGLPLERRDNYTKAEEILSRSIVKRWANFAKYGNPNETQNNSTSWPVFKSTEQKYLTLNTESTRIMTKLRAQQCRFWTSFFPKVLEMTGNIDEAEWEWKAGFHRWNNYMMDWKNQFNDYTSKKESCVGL
T1 sequence (P22303 32-614): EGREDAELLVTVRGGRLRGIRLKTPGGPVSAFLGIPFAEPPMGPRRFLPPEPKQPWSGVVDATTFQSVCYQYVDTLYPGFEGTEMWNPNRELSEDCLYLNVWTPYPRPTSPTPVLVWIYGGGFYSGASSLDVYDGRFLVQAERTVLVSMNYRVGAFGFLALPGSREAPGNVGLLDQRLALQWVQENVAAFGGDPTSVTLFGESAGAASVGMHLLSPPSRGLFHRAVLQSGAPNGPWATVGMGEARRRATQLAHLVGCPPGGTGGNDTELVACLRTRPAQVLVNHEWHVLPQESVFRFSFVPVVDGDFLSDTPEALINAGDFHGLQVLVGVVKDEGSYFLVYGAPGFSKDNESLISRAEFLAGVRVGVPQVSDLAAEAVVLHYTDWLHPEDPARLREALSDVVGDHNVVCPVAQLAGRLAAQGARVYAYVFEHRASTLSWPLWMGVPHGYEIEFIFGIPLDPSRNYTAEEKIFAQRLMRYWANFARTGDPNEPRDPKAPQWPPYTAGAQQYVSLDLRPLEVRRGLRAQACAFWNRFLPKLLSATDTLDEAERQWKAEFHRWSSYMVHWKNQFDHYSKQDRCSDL

Take `O=C1c2ccccc2C(=O)N1Cc1cc[n+](Cc2ccc(F)cc2)cc1` [B]: the figures for the IC50 on AChE [1] (setting [4]) and with BuChE (setting [5]) were 0.77 µM and 8.71 µM, respectively.

`c1ccc(C[n+]2ccc(-c3nc4ccccc4s3)cc2)cc1` [C]: the IC50 (commonly the concentration that inhibits the measured activity by half) on AChE [1] (setting [4]) is 0.014 µM; in the test on BuChE (setting [5]), 0.182 µM.

In the case of `CSc1c([N+](=O)[O-])c(C(C#N)C(N)=O)c(-c2ccc(Cl)cc2)n1-c1ccc(O)cc1` (stereo not shown) [Compound 4ad, 2-(2-(4-chlorophenyl)-1-(4-hydroxyphenyl)-5-(methylthio)-4-nitro-1H-pyrrol-3-yl)-2-cyanoacetamide], the “BChE inhibition (in words)” value on BChE was “no significant inhibition; also recorded: inactive”. The inhibition (as a rule, how much of the control response was suppressed) at 50 µM at BChE (setting [6]) is 20 ± 1.33%; against AChE [3] (setting [7]), 89.8 ± 2.36%. At AChE [2] (Lineweaver-Burk plots, Km and Vmax reduced with increasing inhibitor concentration), the “type of AChE inhibition” value is on record as “uncompetitive”. At AChE [2] (estimated from plot of Km versus concentrations of 4ad (0-8 µM), substrate acetylthiocholine 0.1-1 mM, read-out: inhibition constant, Ki), the Ki (in general, a measure of affinity in units of concentration, obtained from inhibition or displacement) is 2.84 µM. Also, half-maximal inhibition against AChE [3] (IC50) required 2.95 ± 1.31 µM.

`COc1ccc(-c2[nH]c(N)c([N+](=O)[O-])c2C(C#N)C(N)=O)cc1` (stereo not shown) [Compound 4x, 2-(5-amino-2-(4-methoxyphenyl)-4-nitro-1H-pyrrol-3-yl)-2-cyanoacetamide]: the inhibition at 50 µM at BChE (setting [6]) came to 19.4 ± 3.91%; at AChE [3] (setting [7]) it was 47.7 ± 3.91%.

On to `COc1cccc2cc(C(=O)/C=C/c3ccc[n+](Cc4ccccc4Br)c3)oc12` [D], for which, at AChE [1] (setting [4]), the IC50 was 0.027 µM.

Turning to `O=C(NC1CCN(Cc2ccccc2)CC1)c1cc(-c2cccc([N+](=O)[O-])c2)on1` [F], the IC50 is 16.1 µM on AChE [1] (setting [4]) and 15.2 µM in the test on BuChE (setting [5]).

For `Cc1nc2ccccc2c2cc[nH]c12` [G], the IC50 at AChE [1] (Fig. 3, target per b17 AChE, read-out: IC50) was 4.9 ± 0.9 µM.

Regarding `CN1CCC2COc3ccccc3C21` (stereo not shown) [H], the IC50 at AChE [1] (setting [8]) was 7.75 µM; with BuChE (Fig. 3) it was 7.23 µM.

As to `CCOC(=O)c1[nH]c(-c2ccccc2)cc1-c1ccccc1` [I], the IC50 at AChE [1] (setting [8]) was 128 µM. For the same compound, the Ki on AChE [1] (Fig. 3, read-out: Ki against AChE) was 104 ± 15.4 µM.

On to “Ethyl3-amino-2-(5-(methylthio)-4-nitro-1-phenyl-2-(p-tolyl)-1H-pyrrol-3-yl)-3-oxopropanoate [Compound 4ak]”, for which, on BChE (setting [6]), the “BChE % inhibition at 50 µM” value was 25.56 ± 6.89%. The “AChE % inhibition at 50 µM” value on AChE [3] (setting [7]) is given as 20.79 ± 2.62%.

Source of the values: publication PMC9454393 (Scientific Reports, 2022).
